Patent US12031897B2, “Target-locking single-molecule nanoscopy” (Memorial Sloan Kettering Cancer Center, priority 2019, dated 2024)

Test system: SiR-Rpb1 (Pol II) in the nucleus of U2-OS cells
Experiment: SiR-Rpb1 FRAP in the nucleus of clone 5 cells
Format: cell-based, human
Details: after ~30-40 minutes incubation with 10 μM Flavopiridol
Excerpt: Live cell imaging experiments (SiR-Rpb1 FRAP). For SiR-Rpb1 FRAP experiments, time lapse images were acquired at 1 fps at a focal point adjusted at the mid-plane of the nucleus. To bleach molecules at a spot in the nucleus, an iris was used to block all but a small circle in the center of the excitation beam, the dynamic diffuser was removed and ˜[…] 642 nm laser power was applied for ˜10 seconds. Then, the 642 nm laser power was reduced to ˜7 W/μm2, the diffuser was put back in the optical path (resulting in additional drop in the power reaching the sample), the iris was removed and time-lapse acquisition continued. The recovery trace of SiR-Rpb1 at the bleached spot was corrected for photobleaching using the intensity of nearby (non-photobleached) regions in the nucleus.
Quantification of signal (S) and immobile background (Bi) at the transcription site. […] This behavior reflects gradual photobleaching of Pol II molecules residing within the excitation volume during the measurement and a constant background of molecules rapidly diffusing in and out. […] The Bi/Bd ratio is also consistent with: (i) Fluorescence Recovery After Photobleaching (FRAP) measurements at random nuclear locations (FIGS. 11K, 11L), showing that ˜40% of total Pol II is immobile (recovery time ˜20 min) and likely transcriptionally engaged; (ii) previous GFP-Pol II FRAP results in a related system.

CN1CC[C@H](c2c(O)cc(O)c3c(=O)cc(-c4ccccc4Cl)oc23)[C@H](O)C1 [flavopiridol]
slow-recovering immobile Pol II population (FRAP) (~40% in absence of Flavopiridol): 10-15% | fast FRAP recovery of SiR-Rpb1 (~60% in absence): 85-90%
